Columns and labels:
[1] = system: PACE4 mRNA; test: Electrophoresis gel of aggrecan degradation products in TNF/OSM treated cartilage explants; type: cell-based, human; conditions: 100 nM dsRNA, vs controls, FIG. 2
Procedure: FIG. 2 depicts an electrophoresis gel showing aggrecan-degradation products in untreated (lane 1), TNF/OSM treated control (lane 2) and TNF/OSM treated, PACE4 siRNA treated cartilage explants; and
(§1) The sequence CGGCAAUGAUUAUGACCCAtt (SEQ ID NO. 2) was selected as a sense strand for dsRNA. The corresponding antisense strand, UGGGUCAUAAUCAUUGCCGtt, (SEQ ID NO. 3) was also selected. dsRNA was synthesized commercially (Ambion, Austin, Tex. 78744-1832 USA) and 100 nM was introduced into cultured human chondrocytes and human cartilage stimulated with TNF-α and Oncostatin M (OSM). It is known that stimulation of cartilage or chondrocytes with TNF-α and OSM will induce cartilage degradation and upregulate aggrecanase. Nonsense dsRNA, that is, dsRNA with the same […], but scrambled in sequence, were introduced into cultured human chondrocytes and human cartilage explants as controls. The control groups are not expected to induce RNAi, since the dsRNA is not expected to produce an inhibitory effect on mRNA. […] 2 and SEQ ID NO. 3.
Referring now to FIG. 2, the aggrecanase mediated cleavage of aggrecan, shown by the aggrecan derived peptide neopitope fragment AGEG (SEQ ID NO. 10) and the aggrecan derived peptide neopepitope fragment ARGS (SEQ ID NO. 11) was reduced with interfering dsRNA, as compared to controls.

[2] = system: PACE4 mRNA; test: Aggrecanase activity in TNF-α and OSM stimulated cultured human chondrocytes after PACE4 RNAi; type: cell-based; conditions: 100 nM dsRNA; human chondrocytes stimulated with TNF-α and OSM; vs stimulated controls; FIG. 1
Procedure: as §1

[3] = system: PACE4 mRNA; test: Glycosaminoglycan (GAG) release from TNF/OSM treated cartilage explants into the supernatant; type: cell-based, human; conditions: 100 nM dsRNA, vs nonsense dsRNA, FIG. 3
Source text: FIG. 3 is a bar graph showing glycosaminoglycan (GAG) release from cartilage explants into the supernatant is reduced in TNF/OSM treated cartilage explants with the addition of siRNA of SEQ ID NO. 2 and SEQ ID NO. 3 (narrow shaded bar) as compared with normal control (unshaded bar) and TNF/OSM treated cartilage explants with nonsense dsRNA.
as §1
Glycosaminoglycan (GAG) release from proteoglycan and depressed proteoglycan synthesis are thought to be correlated with cartilage destruction in arthritis. […]

## siRNA of SEQ ID NO. 2 and SEQ ID NO. 3: dsRNA: sense strand CGGCAAUGAUUAUGACCCAtt (SEQ ID NO. 2), antisense strand UGGGUCAUAAUCAUUGCCGtt (SEQ ID NO. 3); inhibits PACE4 mRNA (sense CGGCAAUGAUUAUGACCCATT; antisense UGGGUCAUAAUCAUUGCCGTT; dsRNA with lower-case tt overhangs, chemistry of tt not given here, further chemistry not given here)
[1]
  aggrecanase mediated cleavage of aggrecan (neoepitope fragments AGEG and ARGS): reduced
[2]
  reduction in aggrecanase activity: greater than eighty percent reduction
[3]
  glycosaminoglycan (GAG) release from cartilage explants into the supernatant: reduced

Source: patent US20050090466A1, “Inhibitors of PACE4 for the treatment of arthritis” (Pharmacia & Upjohn Company LLC, priority 2003, published 2005)
